# How the values were obtained:
# NF-κB [1] = test: NF-κB activity (SEAP and IL-8 production) in HT-29 clone 34 cells; type: cell-based, human
# Protocol: The human colonic adenocarcinoma HT-29 clone 34 cell line (passage 42-50) are adherent cells stably transfected with a NF-κB/SEAP reporter plasmid. They were cultured in DMEM high glucose (4.5 g/L) (Invitrogen) containing 1% of stable L-glutamine and supplemented with 10% of heat inactivated (one hour at 56° C.) Foetal Calf Serum (FCS) (Bioconcept, Allschwil, Switzerland), 1% of Penicillin/Streptomycin (Sigma) and 500 μg/ml of Geneticin (PAA, Pasching, Austria) at 37° C. in a 5% CO2/air incubator. Culture medium was renewed every two days until the cell monolayer reached ˜90% confluence. Cells were sub-cultured using 1× Trypsin/EDTA (Sigma).
# (§1) 10000 cells/well were seeded in 200 μl of culture medium in flat bottom white border 96 well plates (Greiner Bio One, Kremsmuenster, Austria). […] 20 μl of experimental medium containing (or not) LPS 055:B5 or rhTNF-α (100 and 10 ng/ml final, respectively) was added and the plates were incubated for 24 hours at 37° C. in a 5% CO2/air incubator.
# Cell culture supernatants were then collected for measurement of NF-κB activity (determination of secreted alkaline phosphatase and IL-8 production) using Phosphalight (Applied Biosystems) and IL-8 singleplex (Meso Scale, Gaithersburg, Md.) kits, respectively.
# HT-29 clone 34 cells = test: Cell viability of HT-29 clone 34 cells (ATP, Cell Titer-Glo); type: cell-based, human; settings: ATP measurement
# Protocol: as §1
# Cell viability was determined by measuring ATP using a Cell Titer-Glo kit (Promega). Briefly, remaining adherent HT-29 clone 34 cells were incubated for 10 min at room temperature under horizontal shaking (250 rpm) with 120 μl of Cell Titer-Glo reagent (pre-diluted twice in 1×PBS) and the luminescence was measured using Polarstar microplate reader (BMG, Offenburg, Germany) for 1000 ms with a gain value set to 3500.
# THP-1 blue cells = test: Cell viability of THP-1 blue cells (Cell Titer-Glo); type: cell-based, human
# Protocol: 200000 cells/well were seeded in 100 μl of culture medium in 96 well flat bottom transparent plates. […] 20 μl of culture media containing (or not) LPS 055:B5 (Sigma) (100 ng/ml final) was added and the plates were incubated for 16 hours at 37° C. in a 5% CO2/air incubator.
# Cell culture supernatants were carefully transferred to 96 well-plates for NF-κB activity measurement which is proportional to the level of secreted alkaline phosphatase. Briefly, 100 μl of supernatants were mixed with 150 μl of QuantiBlue (Invivogen) in a 96 well-plates incubated for 3 h at 37° C. before OD measurements at 620 nm with Sunrise microplate reader (Tecan, Mannedorf, Switzerland). Cell viability was determined using Cell Titer-Glo kit as described above.
# NF-κB [2] = test: NF-κB activity (secreted alkaline phosphatase) in THP-1 blue cells; type: cell-based, human; settings: THP-1 blue cells stimulated with LPS
# Protocol: Human monocytes/macrophages THP-1 blue cells (passage 16-20) (Invivogen, Toulouse, France) were cultured in modified RPMI medium (ATCC, Manassas, Va.) containing 1 mM of sodium pyruvate, 2 mM of L-glutamine, 4.5 g/L of glucose and 10 mM of HEPES supplemented with 10% of heat inactivated FCS (Bioconcept), 1% of Penicillin/Streptomycin (Sigma) and 500 μg/ml of Zeocin (Invivogen) at 37° C. in a 5% CO2/air incubator. 200000 cells/well were seeded in 100 μl of culture medium in 96 well flat bottom transparent plates. […] 20 μl of culture media containing (or not) LPS 055:B5 (Sigma) (100 ng/ml final) was added and the plates were incubated for 16 hours at 37° C. in a 5% CO2/air incubator. Cell culture supernatants were carefully transferred to 96 well-plates for NF-κB activity measurement which is proportional to the level of secreted alkaline phosphatase. Briefly, 100 μl of supernatants were mixed with 150 μl of QuantiBlue (Invivogen) in a 96 well-plates incubated for 3 h at 37° C. before OD measurements at 620 nm with Sunrise microplate reader (Tecan, Mannedorf, Switzerland). Cell viability was determined using Cell Titer-Glo kit as described above.
# AREc32 cells = test: Cell viability of AREc32 cells (ATP quantification, Cell Titer-Glo); type: cell-based; settings: 24 hours
# Protocol: To determine the Nrf2 activation the samples were tested on AREc32 cells (seeded in 96 well plates) using 10 independent dilutions (½, ¼, ⅙, 1/10, 1/15, 1/20, 1/25, 1/30, 1/40 and 1/50) and incubated for 24 hours at 37° C. in a 5% CO2/air incubator. The luciferase activity and the cell viability (ATP measurements) were determined using the Luciferase and Cell Titer-Glo kits from Promega.
# The cell viability was also measured using a cell Titer-Glo kit (ATP quantification).
# Nrf2 = Nrf2 reporter assay (ARE-luciferase) in AREc32 cells; type: cell-based; settings: 24 hours
# Protocol: Activation of Nrf2 was measured using an Nrf2 reporter assay. This assay is based on the AREc32 cell line, from CRX biosciences (Dundee, Scotland), a stably transfected MCF7 (breast adenocarcinoma) cell line that contains a luciferase gene construct under the control of the ARE. […] Anti-oxidative molecules such as Tert-butylhydroquinone (TBHQ) induce luciferase transcription via the activation of Nrf2 that binds to ARE. Luciferase activity is determined using a luciferase kit form Promega (Madison, Wis.). The luciferase activity is proportional to the activation of Nrf2. […] The luciferase activity and the cell viability (ATP measurements) were determined using the Luciferase and Cell Titer-Glo kits from Promega. For each run the luciferase activities, measured in Relative Light Units (RLU), of all the wells were normalized with the mean of the luciferase activity of the cells only of all the plates. […] For each sample the Nrf2 activation was calculated as follows: 1) The Nrf2 fold induction: The Nrf2 fold induction is very useful for screening purposes. […] The luciferase content per sample allows a semi quantification of the Nrf2 activation by reflecting the amount of the Nrf2 activating molecule. […] The cell viability was also measured using a cell Titer-Glo kit (ATP quantification).
# [3] = HT-29 clone 34 cells stimulated with LPS
structure (smiles),measurement,setting,value
CC(=O)/C=C/C(=O)O [4-oxo-2-pentenoic acid],Dose giving the best inhibition of SEAP and IL-8 secretion,NF-κB [1]; [3],50 µM
same,Inhibition of NF-κB activity (in words),NF-κB [1]; [3],inhibits NF-κB activity in a dose dependent manner
same,NF-κB activity (SEAP or IL-8) in the absence of LPS,"NF-κB [1]; HT-29 clone 34 cells, no LPS, doses tested 3 to 400 μM",no NF-κB activity was observed
same,Doses giving a decrease in cell viability of HT-29 clone 34 cells,HT-29 clone 34 cells,> 50 µM
same,Doses toxic to cells,THP-1 blue cells,higher than 75 μM
same,Doses giving strong NF-κB inhibition,NF-κB [2],40 to 75 µM
same,Doses at which viability of AREc32 cells was not affected,AREc32 cells,lower than 70 μM
same,Nrf2 activation (in words),Nrf2,strongly activate Nrf2 in a dose dependent manner
same,Optimal dose of Nrf2 activation,Nrf2; dose range 0 to 200 μM,40 to 50 µM
